Tests used:
Design in all cases: species or system mice (C57BL/6)
[1] = test system: anti-MUC1 IgG antibodies; assay: Self-adjuvanting vaccine: anti-MUC1 total IgG (ELISA, BSA-MUC1 coated plates) in sera of immunized mice (In Vivo Experiment 2); conditions: C57BL/6 mice, subcutaneous, days 0, 11, 21, dose equimolar to 50 μg of MUC1 per injection, no external adjuvant, endpoint sera day 28, versus pre-sera
Protocol: (§1) Concerning the saponin-antigen conjugates, groups of five mice (C57BL/6, female, 6-8 weeks old) were vaccinated subcutaneously three times every […] (days 0, 11, and 21) with the glycoconjugate constructs (50 μg/mouse) in phosphate-buffered saline (PBS, 100 μl). To determine the antibody responses over time, mice were bled via submandibular vein at the indicated post-vaccination time point (day 18), and by cardiac puncture at the experimental endpoint (day 28). Blood was collected in BD Microtainer® tubes (Clot Activator/SST™ Gel) and centrifuged at 13000 g for 10 min. Sera were harvested and stored at −20° C. until further analysis.
(§2) Quantification of antibody production. Antibody titers against OVA protein for the saponin adjuvants, or against MUC1 and TnMUC1 antigens in the case of the conjugate constructs were measured by an indirect enzyme-linked immunosorbent assay (ELISA). Briefly, ELISA plates (Thermo Scientific) were coated with endotoxin-free OVA (EndoFit™ Ovalbumin; Invitrogen) or with BSA-MUC1 or BSA-TnMUC1 conjugates at 0.05 μg/well in carbonate buffer (pH 9.5), and plates were incubated overnight at 4° C. After washing the wells (PBS, 10 mM, containing 0.05% Tween 20), plates were blocked with 10% of fetal calf serum (FCS, Biowest) in PBS buffer for 1 h. […] Absorbance (OD, 450 nm) was immediately measured using a BioTek® Synergy HT multi-detection microplate reader. […]

[2] = test system: anti-TnMUC1 IgG antibodies; assay: Self-adjuvanting vaccine: anti-TnMUC1 total IgG (ELISA, BSA-TnMUC1 coated plates) in sera of immunized mice (In Vivo Experiment 2); conditions: C57BL/6 mice, subcutaneous, days 0, 11, 21, dose equimolar to 50 μg of MUC1 per injection, no external adjuvant, endpoint sera day 28, versus pre-sera
Protocol: as §1, §2

[3] = test system: anti-OVA IgG antibodies; assay: Adjuvant activity: anti-OVA total IgG (ELISA) in sera of mice vaccinated with OVA plus saponin (In Vivo Experiment 1); conditions: C75BL6 mice, three subcutaneous injections 10 days apart, OVA 10 μg + saponin 50 μg, endpoint sera day 28, total IgG ELISA
Protocol: Vaccination of mice. In the case of the synthetic saponin adjuvants, groups of five mice (C57BL/6, female, 6-8 weeks old) were vaccinated subcutaneously three times every 10 days (days 0, 11, and 21) with endotoxin-free OVA (EndoFit™ Ovalbumin, Invitrogen) (10 μg/mouse) in phosphate-buffered saline (PBS, 100 μL) either alone (no-adjuvant control group) or with the synthetic saponins (50 μg/mouse). To analyze the antibody responses over time, mice were bled via the submandibular vein at the indicated pre-(day −1) and post-vaccination time points (days 18), and by cardiac puncture at the experimental endpoint (day 28). Blood was collected in BD Microtainer® tubes (Clot Activator/SST™ Gel) and centrifuged at 7500 g for 10 min, after which serum was harvested and stored at −20° C. until further analysis.
Quantification of antibody production. Antibody titers against OVA protein for the saponin adjuvants, or against MUC1 and TnMUC1 antigens in the case of the conjugate constructs were measured by an indirect enzyme-linked immunosorbent assay (ELISA). Briefly, ELISA plates (Thermo Scientific) were coated with endotoxin-free OVA (EndoFit™ Ovalbumin; Invitrogen) or with BSA-MUC1 or BSA-TnMUC1 conjugates at 0.05 μg/well in carbonate buffer (pH 9.5), and plates were incubated overnight at 4° C. After washing the wells (PBS, 10 mM, containing 0.05% Tween 20), plates were blocked with 10% of fetal calf serum (FCS, Biowest) in PBS buffer for 1 h. Serial dilutions of mouse sera in blocking buffer (10% FCS in PBS buffer) were added to the wells with appropriate controls and incubated for 1 h at room temperature. After washing, goat anti-mouse total IgG (Jackson ImmunoResearch) or subclass specific IgG1, IgG2b, IgG2c and IgG3 (SouthernBiotech) antibodies conjugated to horseradish peroxidase (HRP) were added to each well at the dilution indicated by the manufacturer. After 1 h incubation at room temperature, KPL SureBlue Reserve™ commercial solution (100 μL/well, SeraCare) containing 3,3′,5,5′-tetramethylbenzidine (TMB) was added as peroxidase substrate and after incubation for 10 min, the reaction was stopped with 2 N H2SO4 (100 μL/well). Absorbance (OD, 450 nm) was immediately measured using a BioTek® Synergy HT multi-detection microplate reader.
A straightforward proof-of-principle in vivo experiment was carried out to directly compare their adjuvant activities of prior art compound 12 and the compounds of the invention 1 and 2 in terms of IgG antibody production, using chicken ovalbumin (OVA) as a model antigen. […] Endpoint sera after three immunizations were probed via ELISA assays by coating 96-well plates with OVA (0.05 μg/ml) and total IgG optical density (OD) values (at day 28) were measured (FIG. 1).

| Structure (SMILES) | production of total anti-MUC1 IgG antibodies [1] | production of total anti-TnMUC1 IgG antibodies [2] | anti-OVA IgG antibody response versus negative control group (OVA alone) [3] | anti-OVA IgG titers compared to those induced by previous EA lead saponin 12 (C3-hydroxyl) [3] |
| --- | --- | --- | --- | --- |
| CC[C@H](C)C(NC(=O)[C@H](CCCCN)NC(=O)[C@H](Cc1c[nH]c2ccccc12)NC(=O)[C@@H](NC(=O)[C@H](C)NC(=O)[C@H](Cc1ccccc1)NC(=O)[C@H](CC(C)C)NC(=O)[C@H](CCCCN)CC(=O)NO/N=C1/CCC2(C)C(CCC3(C)C2CC=C2C4CC(C)(C)CC[C@]4(C(=O)O[C@]4([C@@H]5OC(C)[C@H](O[C@@H]6OC[C@@H](O)C(O)C6O)C(O)C5O)OC(CO)[C@H](NC(=O)CCCCCNC(=O)COCCOCCOCC(=O)NCC(=O)N[C@H](C(=O)N[C@H](C(=O)O[C@@H](CO)C(=O)N[C@@H](C)C(=O)N5CCC[C@H]5C(=O)N[C@@H](CC(=O)O)C(=O)N[C@H](C(=O)N[C@@H](CCCNC(=N)N)C(=O)N5CCC[C@H]5C(=O)N[C@@H](C)C(=O)N5CCC[C@H]5C(=O)NCC(=O)N[C@@H](CO)C(=O)N[C@H](C(=O)N[C@@H](C)C(N)=O)C(C)O)C(C)O)C(C)O)C(C)C)C(O)C4O)C(O)CC23C)C1(C)C)C(C)C)C(=O)N[C@H](C(=O)N[C@@H](Cc1ccc(O)cc1)C(=O)N[C@@H](CCCCN)C(=O)N[C@@H](CC(=O)O)C(=O)N[C@H](C(=O)O)[C@@H](C)O)[C@@H](C)O (stereo partly drawn) [compound 10, PV-Echinocystic Acid Saponin-MUC1 Tri-Conjugate] | high levels |  |  |  |
| CC[C@H](C)C(NC(=O)[C@H](CCCCN)NC(=O)[C@H](Cc1c[nH]c2ccccc12)NC(=O)[C@@H](NC(=O)[C@H](C)NC(=O)[C@H](Cc1ccccc1)NC(=O)[C@H](CC(C)C)NC(=O)[C@H](CCCCN)CC(=O)NO/N=C1/CCC2(C)C(CCC3(C)C2CC=C2C4CC(C)(C)CC[C@]4(C(=O)O[C@]4([C@@H]5OC(C)[C@H](O[C@@H]6OC[C@@H](O)C(O)C6O)C(O)C5O)OC(CO)[C@H](NC(=O)CCCCCNC(=O)COCCOCCOCC(=O)NCC(=O)N[C@H](C(=O)N[C@H](C(=O)O[C@@H](CO)C(=O)N[C@@H](C)C(=O)N5CCC[C@H]5C(=O)N[C@@H](CC(=O)O)C(=O)N[C@H](C(=O)N[C@@H](CCCNC(=N)N)C(=O)N5CCC[C@H]5C(=O)N[C@@H](C)C(=O)N5CCC[C@H]5C(=O)NCC(=O)N[C@@H](CO)C(=O)N[C@H](C(=O)N[C@@H](C)C(N)=O)C(C)O)C(C)O[C@H]5OC(CO)[C@H](O)C(O)C5NC(C)=O)C(C)O)C(C)C)C(O)C4O)C(O)CC23C)C1(C)C)C(C)C)C(=O)N[C@H](C(=O)N[C@@H](Cc1ccc(O)cc1)C(=O)N[C@@H](CCCCN)C(=O)N[C@@H](CC(=O)O)C(=O)N[C@H](C(=O)O)[C@@H](C)O)[C@@H](C)O (stereo partly drawn) [compound 11, PV-Echinocystic Acid Saponin-TnMUC1 Tri-Conjugate] |  | high levels |  |  |
| C[C@@H]1O[C@@H](O[C@H]2[C@H](OC(=O)[C@]34CCC(C)(C)C[C@H]3C3=CC[C@@H]5[C@@]6(C)CCC(=O)C(C)(C)[C@@H]6CC[C@@]5(C)[C@]3(C)C[C@H]4O)O[C@H](CO)[C@H](NC(=O)CCCCCCCCCCC(=O)O)[C@@H]2O)[C@H](O)[C@H](O)[C@H]1O[C@@H]1OC[C@@H](O)[C@H](O)[C@H]1O [compound 1] |  |  | significantly higher than that of the negative control group | increased |
| C[C@@H]1O[C@@H](O[C@H]2[C@H](OC(=O)[C@]34CCC(C)(C)C[C@H]3C3=CC[C@@H]5[C@@]6(C)CC/C(=N/O)C(C)(C)[C@@H]6CC[C@@]5(C)[C@]3(C)C[C@H]4O)O[C@H](CO)[C@H](NC(=O)CCCCCCCCCCC(=O)O)[C@@H]2O)[C@H](O)[C@H](O)[C@H]1O[C@@H]1OC[C@@H](O)[C@H](O)[C@H]1O [compound 2] |  |  | significantly higher than that of the negative control group | increased (significantly in the latter case) |
